The target in test [1] is T1, D2-DOP-CLONE (Rattus norvegicus, UniProt P61169).
T1 construct: expressed in transfected cells; host or cells: CHO-K1
In words: Competition binding against [3H]-86170, cloned rat D2 receptors expressed in CHO-K1 cells (Table II). Particulars: ligand 86170 (2 nM). On the procedure: (§1) As was done for Table I, competition binding experiments employed eleven dilutions of test compounds of Formula II competing with [^3 H]-5-(dipropylamino)-5,6-dihydro-4H-imidazo(4,5,1-ij)quinolin-2(1H)-one (R-enantiomer) ("86170") (62 Ci/mmol, 2 nM) and [^3 H]-7-OH-DPAT ("7-OH-DPAT") (107 Ci/mmol, 0.5 nM) for D2 and D3 binding sites, respectively. (Lahti, R. A., Eur. J. Pharmacol., 202, 289 (1991)) In each experiment, cloned rat receptors expressed in CHO-K1 cells were used. (Chio, C. L., Nature, 343, 266 (1990); and Huff, R. M., Mol. Pharmacol., 45, 51-60 (1993). Ki values were calculated with the Chen-Prushoff equation. The results are shown in Table II for compounds prepared under Scheme 5.

In test [2] the target is T2, D3-DOP-CLONE (Rattus norvegicus, UniProt P19020).
T2 construct: expressed in transfected cells; host or cells: CHO-K1
T2 sequence (P19020 whole entry): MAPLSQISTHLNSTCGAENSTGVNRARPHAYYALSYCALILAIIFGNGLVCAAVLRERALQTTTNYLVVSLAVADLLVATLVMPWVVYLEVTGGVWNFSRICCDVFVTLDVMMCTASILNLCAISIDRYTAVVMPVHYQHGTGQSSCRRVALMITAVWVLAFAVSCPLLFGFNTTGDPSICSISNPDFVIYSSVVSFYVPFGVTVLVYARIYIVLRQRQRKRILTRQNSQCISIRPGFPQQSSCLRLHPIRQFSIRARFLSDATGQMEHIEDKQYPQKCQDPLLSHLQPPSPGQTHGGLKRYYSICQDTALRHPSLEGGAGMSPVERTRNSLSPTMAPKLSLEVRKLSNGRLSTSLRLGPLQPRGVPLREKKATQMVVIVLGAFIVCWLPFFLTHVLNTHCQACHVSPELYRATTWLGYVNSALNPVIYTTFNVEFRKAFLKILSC
Put plainly: Competition binding against [3H]-7-OH-DPAT, cloned rat D3 receptors expressed in CHO-K1 cells (Table II). Particulars: ligand 7-OH-DPAT (0.5 nM). The procedure:
as §1

In test [3] the target is T1, D2-DOP-CLONE. In words: Competition binding against [3H]-86170, cloned rat D2 receptors expressed in CHO-K1 cells (Table I). Particulars: ligand 86170 (2 nM). Set-up: key to Ki (nM): *: indicates compound was inactive. On the procedure: (§2) Competition binding experiments employed eleven dilutions of test compounds of Formula I competing with [^3 H]-5-(dipropylamino)-5,6-dihydro-4H-imidazo(4,5,1-ij)quinolin-2(1H)-one (R-enantiomer) ("86170") (62 Ci/mmol, 2 nM) and [^3 H]-spiperone ("SPI") (107 Ci/mmol, 0.5 nM) for D2 and D3 binding sites, respectively. (Lahti, R. A., Eur. J. Pharmacol., 202, 289 (1991)) In each experiment, cloned rat receptors expressed in CHO-K1 cells were used. (Chio, C. L., Nature, 343, 266 (1990); and Huff, R. M., Mol. Pharmacol. 45, 51-60 (1993)).

The target in test [4] is T2, D3-DOP-CLONE. Put plainly: Competition binding against [3H]-spiperone, cloned rat D3 receptors expressed in CHO-K1 cells (Table I). Set-up: key to Ki (nM): *: indicates compound was inactive. Particulars: ligand SPI (0.5 nM). On the procedure: as §2
For the next test, the system named is Dopamine. In words: Dopamine screen. The test is classed as binding.

Some results are limits rather than exact numbers.

The text below walks through data of patent US6084130A, “Aryl substituted bicyclic amines as selective dopamine D3 ligands” (Pharmacia & Upjohn Company, priority 1997, dated 2000).

A word on the Ki: it is a measure of affinity in units of concentration, obtained from inhibition or displacement.

T1 sequence (P61169 whole entry): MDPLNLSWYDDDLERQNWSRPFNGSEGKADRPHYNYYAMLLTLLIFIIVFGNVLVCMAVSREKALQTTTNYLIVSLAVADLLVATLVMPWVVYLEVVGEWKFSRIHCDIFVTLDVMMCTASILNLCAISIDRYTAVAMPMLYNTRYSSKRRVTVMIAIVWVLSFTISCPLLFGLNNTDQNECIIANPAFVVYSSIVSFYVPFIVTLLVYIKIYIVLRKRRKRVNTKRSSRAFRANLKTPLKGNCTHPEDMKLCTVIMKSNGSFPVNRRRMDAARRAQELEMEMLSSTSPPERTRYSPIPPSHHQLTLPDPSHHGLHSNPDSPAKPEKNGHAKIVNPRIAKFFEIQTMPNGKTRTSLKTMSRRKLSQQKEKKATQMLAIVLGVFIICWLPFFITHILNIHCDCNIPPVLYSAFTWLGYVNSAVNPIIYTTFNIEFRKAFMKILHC

As for `CCCNC1CCc2nc(OS(=O)(=O)c3ccc(Cl)cc3)ccc2C1` (centres unmarked) [Compound 52], the values for the Ki at D2-DOP-CLONE [1] and on D3-DOP-CLONE [2] were 0.357 µM and 0.006 µM, respectively.
On the same counts, the results for `CCCN(CCC)C1CCc2nc(OS(=O)(=O)c3ccc(Cl)cc3)ccc2C1` (centres unmarked) [Compound 53] are 0.184 µM and 0.003 µM.
For `CCCN(CCC)[C@@H]1CCc2ccc(CNS(=O)(=O)c3ccc(C#N)cc3)cc2C1` [Example 2, (R)-4-Cyano-N-[[7-(dipropylamino)-5,6,7,8-tetrahydro-2-naphthalenyl]methyl]benzenesulfonamide], the inhibition constant Ki at D2-DOP-CLONE [3] was found to be 1.44 µM; on D3-DOP-CLONE [4], 0.032 µM.
On the same counts, the results for `CCCN(CCC)[C@@H]1CCc2ccc(CNS(=O)(=O)c3ccc(Cl)cc3)cc2C1` [Example 3, (R)-4-Chloro-N-[[7-(dipropylamino)-5,6,7,8-tetrahydro-2-naphthalenyl]methyl]benzenesulfonamide] are 0.206 µM and 0.012 µM.
For `CCCN(CCC)[C@@H]1CCc2ccc(CNS(=O)(=O)c3ccc([N+](=O)[O-])cc3)cc2C1` [Example 4, (R)-4-Nitro-N-[[7-(dipropylamino)-5,6,7,8-tetrahydro-2-naphthalenyl]methyl]benzenesulfonamide], in that order: 0.772 µM and 0.109 µM.
The molecule `CCCN(CCC)[C@@H]1CCc2ccc(CNS(=O)(=O)c3cccc(C#N)c3)cc2C1` [Example 5, (R)-3-Cyano-N-[[7-(dipropylamino)-5,6,7,8-tetrahydro-2-naphthalenyl]methyl]benzenesulfonamide] displayed a Ki on D2-DOP-CLONE [3] of 0.786 µM. Further, the “Ki (nM)” value on D3-DOP-CLONE [4] is recorded as “*”. Further, the “activity in dopamine screen” value in the test with Dopamine is recorded as “Inactive”.
For the molecule `CCCN(CCC)[C@@H]1CCc2ccc(CNS(=O)(=O)c3cn(C)cn3)cc2C1` [Example 6, (R)-N-[[7-(Dipropylamino)-5,6,7,8-tetrahydro-2-naphthalenyl]methyl]1-methyl-1H-imidazole-4-sulfonamide], the inhibition constant Ki on D2-DOP-CLONE [3] was determined as 1.68 µM; at D3-DOP-CLONE [4] it was 1.45 µM.
In the case of `CCCN(CCC)[C@@H]1CCc2ccc(CNC(=O)c3ccc(Cl)cc3)cc2C1` [Example 8, (R)-4Chloro-N-[[7-(dipropylamino)-5,6,7,8-tetrahydro-2-naphthalenyl]methyl]benzamide], the Ki on D2-DOP-CLONE [3] worked out at 0.177 µM; at D3-DOP-CLONE [4] it was 0.087 µM.
As for `CCCN(CCC)[C@@H]1CCc2ccc(CNC(=O)c3ccc(C#N)cc3)cc2C1` [Example 9, (R)-4-Cyano-N-[[7-(dipropylamino)-5,6,7,8-tetrahydro-2-naphthalenyl]methyl]benzamide], the “Ki (nM)” value on D2-DOP-CLONE [3] and on D3-DOP-CLONE [4] was “*” throughout.
`CCCN(CCC)[C@@H]1CCc2ccc(NS(=O)(=O)c3ccc(Cl)cc3)cc2C1` [Example 10, (R)-4-Chloro-N-[7-(dipropylamino)-5,6,7,8-tetrahydro-2-naphthalenyl]benzenesulfonamide]: the inhibition constant Ki on D2-DOP-CLONE [3] came out at 0.324 µM; on D3-DOP-CLONE [4] it was 0.018 µM.
With `CCCN(CCC)[C@@H]1CCc2ccc(NS(=O)(=O)c3ccc(C#N)cc3)cc2C1` [Example 11, (R)-4-Cyano-N-[7-(dipropylamino)-5,6,7,8-tetrahydro-2-naphthalenyl]benzenesulfonamide], the Ki on D2-DOP-CLONE [3] is > 2.24 µM; on D3-DOP-CLONE [4], 0.195 µM.
